In patent US20240269301A1, “METHOD FOR INITIATING POLYMERIZATION OF AMINO ACID N-CARBOXYANHYDRIDES IN AQUEOUS PHASE” (PEKING UNIVERSITY, priority 2021, published 2024):
Counter-ions that a name gives are not always drawn.

Test: Solubility of doxorubicin in PBS (absorbance 495 nm)
Type: physicochemical
Settings: FIG. 38
Description: Determination of doxorubicin content: 600, 300, 150, 75, 37.5, 18.75, 9.375, and 0 μg/mL DOX was formulated as a standard curve. 5 mg of doxorubicin hydrochloride was weighed and added to 1 mL of PBS. 10 mg of DOX-PLP was weighed and added to 100 μL of PBS. After dissolving by vortexing, the mixture was centrifuged at 21,000 for 10 min, and the supernatant was diluted to an appropriate multiple. The absorbance value was measured at 495 nm, and the DOX content was calculated based on the absorbance value of the standard curve.

`COc1cccc2c1C(=O)c1c(O)c3c(c(O)c1C2=O)C[C@@](O)(C(=O)CO)C[C@@H]3O[C@H]1C[C@H](N)[C@H](O)[C@H](C)O1` [doxorubicin hydrochloride] showed a solubility limit of 573±22 μg/mL DOX.
